Tests used:
C-CBL (46-435) = target: T1, C-CBL (46-435) (Homo sapiens, UniProt P22681); experiment: Surface Plasmon Resonance (SPR) assay, binding affinity and kinetics, C-CBL; settings: SPR at 10° C., biotinylated C-CBL (46-435) on streptavidin chip; geometric mean; read-out: C-CBL SPR Kd (nM) GMean
T1 construct: N-terminal biotinylated WT CBL-B (36-427) and C-CBL (46-435) were captured on a streptavidin (SA) coated sensor chip
T1 sequence (P22681 46-435): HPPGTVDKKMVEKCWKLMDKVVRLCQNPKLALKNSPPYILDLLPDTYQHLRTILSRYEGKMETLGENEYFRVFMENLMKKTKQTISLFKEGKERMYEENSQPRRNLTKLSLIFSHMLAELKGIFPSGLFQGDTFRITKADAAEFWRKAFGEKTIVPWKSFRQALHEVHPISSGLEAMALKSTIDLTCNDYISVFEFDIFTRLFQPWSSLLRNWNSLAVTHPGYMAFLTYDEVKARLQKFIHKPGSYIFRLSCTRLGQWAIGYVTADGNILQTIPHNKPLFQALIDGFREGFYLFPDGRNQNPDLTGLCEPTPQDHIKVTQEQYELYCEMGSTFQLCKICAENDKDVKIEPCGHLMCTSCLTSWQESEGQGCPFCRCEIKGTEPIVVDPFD
Protocol: (§1) Surface Plasmon Resonance (SPR) Assay
(§2) The purpose of the SPR assay is to evaluate the binding affinity and kinetics of the compound of disclosure binding to CBL-B and C-CBL.
(§3) The binding affinity and kinetics of compound binding to CBL-B and C-CBL were measured by Surface Plasmon Resonance (SPR) using either Biacore S200, 8K or 8K+ (Cytiva, Marlborough, MA) instruments. N-terminal biotinylated WT CBL-B (36-427) and C-CBL (46-435) were captured on a streptavidin (SA) coated sensor chip to achieve approximately 5000 to 6000 RUs of surface density. Un-functionalized SA surfaces with no immobilized protein served as reference for binding kinetic analysis. All the samples were prepared in buffer consisting of 10 mM HEPES, 150 mM NaCl, 0.05% Tween-20, 5% glycerol, […], 2% DMSO, pH 7.2. The same buffer was used as the running buffer during the experiments. Compound binding kinetics were measured in either multi-cycle or single-cycle kinetic format.
(§4) Multi-cycle kinetic analysis (MCK): A two-fold, 10-point serial dilution of test compounds was set-up in a 96-well microplate (Greiner; Cat #650101) with a top concentration of either 10 μM or 100 μM. Binding kinetics was measured at 10° C. by injecting serial dilution of compounds onto both reference and CBL immobilized channels at a flow rate of 100 μL/min and association time of 90 seconds. Compound dissociation was monitored for >400 seconds during each cycle. No additional regeneration was used. DMSO calibration curve was obtained before and after compound analysis by injecting 0-4% of DMSO in assay buffer. A suitable compound with known affinity and kinetics was tested once in every experiment as a positive control to assess activity of the captured proteins on the surface.
(§5) Single-cycle kinetic analysis (SCK): A 3-fold, 6-point serial dilution of compounds was set-up in a deep 96-well microplate (Greiner Bio; Cat #780201) with the highest concentration of 1 μM (concentration range: […]). Binding kinetics was measured at 10° C. by injecting serial dilutions of compounds in increasing order onto reference as well as CBL immobilized channels at a flow rate of 100 μL/min and association time of 120 seconds. Compound dissociation was monitored for >5400 seconds. Two buffer blanks were also run in a single-cycle kinetics format before the compound run for double referencing. No additional regeneration was used. DMSO calibration curve was obtained before and after compound analysis by injecting 0-4% of DMSO in the assay buffer. A suitable compound with known affinity and kinetics was tested once in every experiment as a positive control to assess activity of the captured proteins on the surface.

CBL-B (residues 36-427) = target: T2, CBL-B (residues 36-427) (Homo sapiens, UniProt Q13191); experiment: Ligand Displacement Assay (LDA), HTRF competitive binding against BODIPY-labeled fluorescent tracer, CBL-B; settings: geometric mean of the number of tests, read-out: CBL-B Ki (nM) GMean
T2 construct: Purified CBL-B (residues 36-427) and C-CBL (residues 46-435) proteins from baculovirus-infected insect cells; made in house; host or cells: baculovirus-infected insect cells
Procedure, shortened: (§6)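 First, the insect-cell-expressed protein is biotinylated at its amino-terminal AviTag with BirA and coupled to SA-Tb. Next, the tracer KD is determined for each protein. Finally, compounds are titrated three-fold in duplicate […], at 2% DMSO, and Ki is reported as a geometric mean.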

WT CBL-B (36-427) = target: T3, WT CBL-B (36-427) (Homo sapiens, UniProt Q13191); experiment: Surface Plasmon Resonance (SPR) assay, binding affinity and kinetics, CBL-B; settings: SPR at 10° C., biotinylated WT CBL-B (36-427) on streptavidin chip; geometric mean; read-out: CBL-B SPR Kd (nM) GMean
T3 construct: N-terminal biotinylated WT CBL-B (36-427) and C-CBL (46-435) were captured on a streptavidin (SA) coated sensor chip
Protocol: as §1, §2, §3, §4, §5

C-CBL (residues 46-435) = target: T4, C-CBL (residues 46-435) (Homo sapiens, UniProt P22681); experiment: Ligand Displacement Assay (LDA), HTRF competitive binding against BODIPY-labeled fluorescent tracer, C-CBL; settings: geometric mean of the number of tests, read-out: C-CBL Ki (nM) GMean
T4 construct: Purified CBL-B (residues 36-427) and C-CBL (residues 46-435) proteins from baculovirus-infected insect cells; made in house; host or cells: baculovirus-infected insect cells
T4 sequence (P22681 46-435): T1 sequence (P22681 46-435)
Procedure, shortened: as §6

Compound	Kd (C-CBL (46-435)) [nM]	Ki (CBL-B (residues 36-427)) [nM]	Kd (WT CBL-B (36-427)) [nM]	Ki (C-CBL (residues 46-435)) [nM]
C[C@@H](c1nc(C(F)(F)F)cc2c(-c3cccc(C4(Cc5nncn5C)COC4)c3)n[nH]c12)N1CCNCC1 (single isomer, unassigned) [Example D53]	36.1	11.8	3.2	36.9
C[C@H](c1nc(C(F)(F)F)cc2c(-c3cccc(C4(Cc5nncn5C)COC4)c3)n[nH]c12)N1CCNCC1 (single isomer, unassigned) [Example D54]	61.7	20.9	8.2	80
C[C@@H](c1nc(C(F)(F)F)cc2c(-c3cccc([C@H](c4nncn4C)C4CCC4)c3)n[nH]c12)N1CCNC(=O)C1 (single isomer, unassigned) [Example D88]	34.1	3.9	5.7	35.2
C[C@H](c1nc(C(F)(F)F)cc2c(-c3cccc([C@H](c4nncn4C)C4CCC4)c3)n[nH]c12)N1CCNC(=O)C1 (single isomer, unassigned) [Example D89]	307	20.9	11	290
C[C@@H](c1nc(C(F)(F)F)cc2c(-c3cccc(C4(Cc5nncn5C)COC4)c3)n[nH]c12)N1CC[C@H](F)C1 (single isomer, unassigned) [Example D97]	230	25	31.9	139
C[C@@H](c1nc(C(F)(F)F)cc2c(-c3cccc(C4(Cc5nncn5C)COC4)c3)n[nH]c12)N1CC[C@H](F)C1 (single isomer, unassigned) [Example D98]	217	25.5	46	110
C[C@H](CO)c1nc(C(F)(F)F)cc2c(-c3cccc([C@H](c4nncn4C)C4CCC4)c3)n[nH]c12 (single isomer, unassigned) [Example K3, (2ξ)-2-[3-{3-[(ξ)-cyclobutyl(4-methyl-4H-1,2,4-triazol-3-yl)methyl]phenyl}-5-(trifluoromethyl)-1H-pyrazolo[3,4-c]pyridin-7-yl]propan-1-ol]	160	11	4	96.5
C[C@@H](CO)c1nc(C(F)(F)F)cc2c(-c3cccc([C@H](c4nncn4C)C4CCC4)c3)n[nH]c12 (single isomer, unassigned) [Example K4, (2ξ)-2-[3-{3-[(ξ)-cyclobutyl(4-methyl-4H-1,2,4-triazol-3-yl)methyl]phenyl}-5-(trifluoromethyl)-1H-pyrazolo[3,4-c]pyridin-7-yl]propan-1-ol]	207	17.6	8.3	156
CC(CN)c1nc(C(F)(F)F)cc2c(-c3cccc(C4(Cc5nncn5C)COC4)c3)n[nH]c12 (single isomer, unassigned) [Example K6, (2ξ)-2-[3-(3-{3-[(4-methyl-4H-1,2,4-triazol-3-yl)methyl]oxetan-3-yl}phenyl)-5-(trifluoromethyl)-1H-pyrazolo[3,4-c]pyridin-7-yl]propan-1-amine]	125	26.5	11.3	78.6
CC(CN)c1nc(C(F)(F)F)cc2c(-c3cccc(C4(Cc5nncn5C)COC4)c3)n[nH]c12 (single isomer, unassigned) [Example K7, (2ξ)-2-[3-(3-{3-[(4-methyl-4H-1,2,4-triazol-3-yl)methyl]oxetan-3-yl}phenyl)-5-(trifluoromethyl)-1H-pyrazolo[3,4-c]pyridin-7-yl]propan-1-amine]	94.9	26.6	8	97.8
CC(O)c1nc(C(F)(F)F)cc2c(-c3cccc(C4(Cc5nncn5C)COC4)c3)n[nH]c12 (single isomer, unassigned) [Example K10, (1ξ)-1-[3-(3-{3-[(4-methyl-4H-1,2,4-triazol-3-yl)methyl]oxetan-3-yl}phenyl)-5-(trifluoromethyl)-1H-pyrazolo[3,4-c]pyridin-7-yl]ethan-1-ol]	291	45.1	23.5	219
CC(O)c1nc(C(F)(F)F)cc2c(-c3cccc(C4(Cc5nncn5C)COC4)c3)n[nH]c12 (single isomer, unassigned) [Example K11, (1ξ)-1-[3-(3-{3-[(4-methyl-4H-1,2,4-triazol-3-yl)methyl]oxetan-3-yl}phenyl)-5-(trifluoromethyl)-1H-pyrazolo[3,4-c]pyridin-7-yl]ethan-1-ol]	199	31.2	11.7	119
CC(CN)c1nc(C(F)(F)F)cc2c(-c3cccc([C@H](c4nncn4C)C4CCC4)c3)n[nH]c12 (single isomer, unassigned) [Example K14]	244	24.8	20.6	195
CC(CN)c1nc(C(F)(F)F)cc2c(-c3cccc([C@H](c4nncn4C)C4CCC4)c3)n[nH]c12 (single isomer, unassigned) [Example K15]	452	30.1	23.9	263
CC(N)c1nc(C(F)(F)F)cc2c(-c3cccc(C4(Cc5nncn5C)COC4)c3)n[nH]c12 (single isomer, unassigned) [Example K16, (1ξ)-1-[3-(3-{3-[(4-methyl-4H-1,2,4-triazol-3-yl)methyl]oxetan-3-yl}phenyl)-5-(trifluoromethyl)-1H-pyrazolo[3,4-c]pyridin-7-yl]ethan-1-amine]	216	32	15.7	140
CC(N)c1nc(C(F)(F)F)cc2c(-c3cccc(C4(Cc5nncn5C)COC4)c3)n[nH]c12 (single isomer, unassigned) [Example K17, (1ξ)-1-[3-(3-{3-[(4-methyl-4H-1,2,4-triazol-3-yl)methyl]oxetan-3-yl}phenyl)-5-(trifluoromethyl)-1H-pyrazolo[3,4-c]pyridin-7-yl]ethan-1-amine]	256	44.6	27.3	145
Cn1cnnc1[C@@H](c1cccc(-c2n[nH]c3c(C4CCCCN4)nc(C(F)(F)F)cc23)c1)C1CCC1 (single isomer, unassigned) [Example L1]	697	74.2	40.7	439
Cn1cnnc1[C@@H](c1cccc(-c2n[nH]c3c(C4CCCCN4)nc(C(F)(F)F)cc23)c1)C1CCC1 (single isomer, unassigned) [Example L2]	307	90.1	30	721
CC(=O)NCC(C)c1nc(C(F)(F)F)cc2c(-c3cccc([C@H](c4nncn4C)C4CCC4)c3)n[nH]c12 (single isomer, unassigned) [Example M4]	250	20.5	10.3	157
CC(=O)NCC(C)c1nc(C(F)(F)F)cc2c(-c3cccc([C@H](c4nncn4C)C4CCC4)c3)n[nH]c12 (single isomer, unassigned) [Example M5]	741	52.5	14.2	527

From US20260125375A1 (Pfizer Inc., priority 2022, published 2026)
